Among the data in patent US20240409557A1, “5,6-FUSED AND 6,6-FUSED BICYCLIC ALCOHOLS AND ETHERS AND COMPOSITIONS FOR USE AS 15-PROSTAGLANDIN DEHYDROGENASE MODULATORS” (AMGEN INC., priority 2023, published 2024) are IC50 values, retold here.

pIC50: −log10 of the molar value.

Assay [1] deals with T1, human recombinant 15-PGDH (Homo sapiens, UniProt P15428).
T1 sequence (P15428 1-266): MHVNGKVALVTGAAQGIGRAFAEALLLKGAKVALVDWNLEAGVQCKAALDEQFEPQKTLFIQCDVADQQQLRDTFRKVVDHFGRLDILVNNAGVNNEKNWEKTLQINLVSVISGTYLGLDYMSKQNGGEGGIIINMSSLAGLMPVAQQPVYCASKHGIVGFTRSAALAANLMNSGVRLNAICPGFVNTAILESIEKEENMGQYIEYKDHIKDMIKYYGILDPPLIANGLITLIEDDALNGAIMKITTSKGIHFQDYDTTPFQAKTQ
Briefly: Recombinant 15-PGDH enzymatic inhibition assay (PGDH-Lumi, NADH signal). It is filed as biochemical. The note with it: recombinant 15-PGDH; 15 min pre-incubation, 60 min reaction with PGE2 and NAD+, NADH signal. In a few lines:
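Buffer 50 mM Tris pH 7.5 with 0.01% Tween-20 and […]; compound, 22 two-fold dilutions, pre-incubated with enzyme 15 min before substrate.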

In another assay the target is T2, 15-PGDH in A549 cells (Homo sapiens, UniProt P15428).
T2 construct: endogenous in cells; host or cells: A549
T2 sequence (P15428 1-266): T1 sequence (P15428 1-266)
Briefly: A549 cellular 15-PGDH assay (PGE2 accumulation, HTRF). The assay is classed as cell-based. The note with it: interleukin-stimulated, inhibitor 24 hrs, PGE2 by competitive HTRF, read-out: A549 Cell Assay IC50. The method, boiled down: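 Supernatant PGE2 was quantified by competitive HTRF, in which sample PGE2 blocks FRET between a europium cryptate-labelled antibody and labelled PGE2. It came from A549 epithelial cells induced with IL-13. IC50s were calculated from the inversely proportional signal.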
A general note: In TR-FRET formats the signal depends on donor and acceptor labels being close together.

What is called pIC50 is the negative decadic logarithm of the IC50, by convention in mol/L. In the case of `Cn1cc2cc(-c3ccc4nc([C@]5(O)C[C@@](C)(C#N)C5)sc4n3)cnc2n1` (single isomer, unassigned) [Compound C91C, cis-3-hydroxy-1-methyl-3-(5-(2-methyl-2H-pyrazolo[3,4-b]pyridin-5-yl)[1,3]thiazolo[5,4-b]pyridin-2-yl)cyclobutanecarbonitrile], the figures for the pIC50 (in assay [1]; at 15-PGDH in A549 cells) were 9.10 and 8.65, respectively.
For `Cc1cn2cc(-c3ccc4cc([C@]5(O)C[C@@H](C(F)F)C5)sc4n3)cnc2n1` [Compound C97C, cis-3-(difluoromethyl)-1-(6-(2-methylimidazo[1,2-a]pyrimidin-6-yl)thieno[2,3-b]pyridin-2-yl)cyclobutanol] the same measures were 9.48 and 8.84.
The like results for `Cn1cc2cc(-c3ccc4cc(C5(O)CC6(CC6)C5)sc4n3)cnc2n1` [Compound C61, 5-(6-(2-methyl-2H-pyrazolo[3,4-b]pyridin-5-yl)thieno[2,3-b]pyridin-2-yl)spiro[2.3]hexan-5-o1] were, in that order, 9.55 and 10.23.
For `Cn1cc2cc(-c3ccc4nc(C5(O)CC6(CC6)C5)sc4n3)cnc2n1` [Compound C108, 5-(5-(2-methyl-2H-pyrazolo[3,4-b]pyridin-5-yl)[1,3]thiazolo[5,4-b]pyridin-2-yl)spiro [2.3]hexan-5-ol] the same measures were 9.17 and 8.90.
`Cn1cc2cc(-c3ccc4cc([C@H](O)[C@@H]5CCOC5)sc4n3)cnc2n1` (single isomer, unassigned) [Compound B19RR]: the figures for the pIC50 (in assay [1]; at 15-PGDH in A549 cells) were 9.61 and 9.42, respectively.
Turning to `Cn1cc2cc(-c3ccc4sc([C@H](O)C5CC(F)(F)C5)nc4n3)cnc2n1` (single isomer, unassigned) [Compound B74R], the pIC50 in assay [1] is 8.32; at 15-PGDH in A549 cells, 9.31.
The like results for `Cc1c([C@@H](O)C2CCOCC2)sc2nc(-c3cnc4c(c3)nnn4C)ccc12` (single isomer, unassigned) [Compound B89S] were, in that order, 6.04 and 6.43.
For `Cn1cc2cc(-c3cnc4cc([C@H](O)C5CC(F)(F)C5)sc4n3)cnc2n1` [Compound B92R, (R)-(3,3-difluorocyclobutyl)(3-(2-methyl-2H-pyrazolo[3,4-b]pyridin-5-yl)thieno[2,3-b]pyrazin-6-yl)methanol] the same measures were 9.29 and 9.39.
For `Cc1nc2ccc(-c3ccc4cc([C@H](O)C5CC(F)(F)C5)sc4n3)cc2o1` (single isomer, unassigned) [Compound B51R] the same measures were 9.79 and 9.45.
`CC(C)[C@@H](O)c1cc2ccc(-c3cnc4nn(C)cc4c3)nc2s1` (single isomer, unassigned) [Compound B24R]: the figures for the pIC50 (in assay [1]; on 15-PGDH in A549 cells) were 9.59 and 9.21, respectively.
The like results for `Cn1ccc2cc(-c3ccc4cc([C@@H](O)C5CC(F)(F)C5)sc4n3)ccc2c1=O` (single isomer, unassigned) [Compound B50S] were, in that order, 8.73 and 8.10.
The like results for `O[C@@H](c1cc2ccc(-c3ccc4nccnc4c3)nc2s1)C1CC(F)(F)C1` (single isomer, unassigned) [Compound B52R] were, in that order, 9.54 and 9.16.
The like results for `COCC[C@@H](O)c1cc2ccc(-c3cnc4nn(C)cc4c3)cc2s1` (single isomer, unassigned) [Compound B59R] were, in that order, 8.32 and 8.11.
As for `Cn1cc2cc(-c3ccc4cc([C@]5(O)C[C@]6(CC6(F)F)C5)sc4n3)cnc2n1` (single isomer, unassigned) [Compound C88C, cis-1,1-difluoro-5-(6-(2-methyl-2H-pyrazolo[3,4-b]pyridin-5-yl)thieno[2,3-b]pyridin-2-yl)spiro[2.3]hexan-5-ol], the pIC50 in assay [1] was 9.30; on 15-PGDH in A549 cells, 9.34.
On to `CO[C@]1(C)C[C@@](O)(c2cc3ccc(-c4cnc5nn(C)cc5c4)nc3s2)C1` [Compound C59C, cis-3-methoxy-3-methyl-1-(6-(2-methyl-2H-pyrazolo[3,4-b]pyridin-5-yl)thieno[2,3-b]pyridin-2-yl)cyclobutanol], for which the pIC50 in assay [1] is 9.23; on 15-PGDH in A549 cells it was 9.95.
The like results for `Cc1cn2ccc(-c3ccc4cc([C@H](O)C5CC(F)(F)C5)sc4n3)cc2n1` (single isomer, unassigned) [Compound B55R] were, in that order, 9.51 and 9.18.
Turning to `Cn1cc2cc(-c3ccc4ccc([C@H](O)C5CCOCC5)cc4n3)cnc2n1` (single isomer, unassigned) [Compound D4R], the pIC50 is 6.61 in assay [1] and 6.73 at 15-PGDH in A549 cells.
For `Cc1nc2cc(-c3ccc4cc([C@@H](O)C5CC(F)(F)C5)sc4n3)ccc2o1` (single isomer, unassigned) [Compound B46S] the same measures were 8.68 and 7.76.
Consider `Cn1cc2cc(-c3ccc4sc([C@@H](O)C5CC(F)(F)C5)cc4n3)cnc2n1` (single isomer, unassigned) [Compound B73S], for which the pIC50 was 9.10 in assay [1] and 9.06 on 15-PGDH in A549 cells.
For `Cn1cc2cc(-c3ccc4cc([C@@H](O)[C@@H]5CCOC5)sc4n3)cnc2n1` (single isomer, unassigned) [Compound B19SR] the same measures were 8.73 and 8.45.
For the compound `Cc1c([C@@H](CO)C2CC(F)(F)C2)sc2nc(-c3cnc4nn(C)cc4c3)ccc12` (single isomer, unassigned) [Compound B93R], the pIC50 in assay [1] is 6.76; at 15-PGDH in A549 cells, 6.61.
With `CO[C@H]1C[C@](O)(c2sc3nc(-c4cnc5nn(C)cc5c4)ccc3c2Cl)C1` [Compound C69C, cis-1-(3-chloro-6-(2-methyl-2H-pyrazolo[3,4-b]pyridin-5-yl)thieno[2,3-b]pyridin-2-yl)-3-methoxycyclobutanol], the results for the negative logarithm of the IC50 (pIC50) (in assay [1]; at 15-PGDH in A549 cells) were 8.94 and 9.14, respectively.
The like results for `Cn1cc2cc(-c3ncc4cc([C@]5(O)C[C@@H](OC(F)(F)F)C5)sc4n3)cnc2n1` [Compound C100C, cis-1-(2-(2-methyl-2H-pyrazolo[3,4-b]pyridin-5-yl)thieno[2,3-d]pyrimidin-6-yl)-3-(trifluoromethoxy)cyclobutanol] were, in that order, 9.52 and 9.17.
The like results for `Cc1nc2cc(-c3ccc4cc([C@H](O)C5CC(F)(F)C5)sc4n3)ccc2o1` (single isomer, unassigned) [Compound B46R] were, in that order, 9.56 and 9.16.
The like results for `O[C@@H](c1cc2ccc(-c3ccc4[nH]ncc4c3)nc2s1)C1CCOCC1` (single isomer, unassigned) [Compound B37R] were, in that order, 8.06 and 7.21.
Turning to `Cn1cc2cc(-c3ccc4cc([C@@H](O)[C@H]5C[C@@H](C(F)(F)F)C5)sc4n3)cnc2n1` (single isomer, unassigned) [Compound B84SC], the values for the pIC50 (in assay [1]; at 15-PGDH in A549 cells) were 8.82 and 8.84, respectively.
For `CO[C@]1(C)C[C@@](O)(c2cc3cnc(-c4cnc5nn(C)cc5c4)nc3s2)C1` (single isomer, unassigned) [Compound C118C, cis-3-methoxy-3-methyl-1-(2-(2-methyl-2H-pyrazolo[3,4-b]pyridin-5-yl)thieno[2,3-d]pyrimidin-6-yl)cyclobutanol] the same measures were 9.25 and 8.66.
The like results for `Cn1cc2cc(-c3ccc4cc([C@@H](O)[C@H]5CCC5(F)F)sc4n3)cnc2n1` (single isomer, unassigned) [Compound B94SR] were, in that order, 9.19 and 8.58.
For `OC1(c2cc3ccc(-c4cnc5[nH]nnc5c4)nc3s2)CC(F)(F)C1` [Compound C55] the same measures were 9.09 and 8.80.
`Cn1cc2cc(-c3ccc4cc(C5(O)CC6(CC(F)(F)C6)C5)sc4n3)cnc2n1` [Compound C27, 6,6-difluoro-2-(6-(2-methyl-2H-pyrazolo[3,4-b]pyridin-5-yl)thieno[2,3-b]pyridin-2-yl)spiro[3.3]heptan-2-ol]: the results for the pIC50 (in assay [1]; on 15-PGDH in A549 cells) were 9.42 and 10.24, respectively.
The like results for `C[C@@H](O)c1cc2c(C3CC3)cc(-c3cnc4nn(C)cc4c3)nc2s1` (single isomer, unassigned) [Compound B11R] were, in that order, 8.47 and 7.57.
The like results for `[2H][C@](O)(c1cc2ccc(-c3cnc4nn(C)cc4c3)nc2s1)C1CC(F)(F)C1` (single isomer, unassigned) [Compound B79R] were, in that order, 9.40 and 11.03.
For `Cn1cc2cc(-c3ncc4cc([C@@H](O)C5CC(F)(F)C5)sc4n3)cnc2n1` (single isomer, unassigned) [Compound B75S] the same measures were 7.60 and 7.90.
For `CO[C@]1(C(F)(F)F)C[C@](O)(c2cc3ccc(-c4cnc5nn(C)cc5c4)nc3s2)C1` (single isomer, unassigned) [Compound C66T, trans-3-methoxy-1-(6-(2-methyl-2H-pyrazolo[3,4-b]pyridin-5-yl)thieno[2,3-b]pyridin-2-yl)-3-(trifluoromethyl)cyclobutanol], the pIC50 in assay [1] was 9.33; at 15-PGDH in A549 cells, 10.65.
